In patent US20260108527A1, “POLO LIKE KINASE 4 INHIBITORS” (ORIC Pharmaceuticals, Inc., priority 2022, published 2026):

Key:
[1] = target: T1, human recombinant Aurora A (Homo sapiens, UniProt O14965); test: Aurora A Kinase Biochemical Assay (ADP-Glo); conditions: selectivity ratio; Aurora A 2.5 nM, 20 μM ATP
T1 construct: purchased ThermoFisher PR5935A
T1 sequence (O14965 1-403): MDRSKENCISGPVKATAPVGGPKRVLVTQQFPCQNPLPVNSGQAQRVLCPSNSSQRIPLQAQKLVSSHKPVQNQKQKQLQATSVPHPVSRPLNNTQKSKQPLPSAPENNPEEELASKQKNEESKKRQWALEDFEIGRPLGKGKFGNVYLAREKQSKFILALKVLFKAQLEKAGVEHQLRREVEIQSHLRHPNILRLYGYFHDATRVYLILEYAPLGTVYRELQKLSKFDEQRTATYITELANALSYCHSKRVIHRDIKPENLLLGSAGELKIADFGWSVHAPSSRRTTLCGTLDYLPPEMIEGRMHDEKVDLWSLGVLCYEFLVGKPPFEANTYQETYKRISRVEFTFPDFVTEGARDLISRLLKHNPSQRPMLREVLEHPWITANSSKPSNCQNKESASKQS
Description: Activity of human recombinant Aurora A (ThermoFisher, cat #PR5935A) was measured by quantification of adenosine diphosphate (ADP) using the ADP-Glo Kinase Assay Kit (Promega, cat #V9102). Test compounds were solubilized in dimethyl sulfoxide (DMSO) and dispensed into 384-well white polystyrene nonbinding plates (Greiner, cat #781094) using the Echo acoustic dispenser (Labcyte Inc.) in a 11-point 3-fold titration in duplicates. 5 μL of 5.0 nM Aurora A in assay buffer (50 mM HEPES, pH 7.5, 0.01% Brij-35, 0.01% BSA, 10 mM MgCl2, 1 mM EGTA, 1 mM DTT) was added to the plates. Test compounds and Aurora A were incubated for 15 minutes at room temperature (RT). Then 5 μL of a 40 μM adenosine triphosphate (ATP) (Promega, cat #V915B) and 9.3 μM Myelin Basic Protein (MBP) (SignalChem, cat #M42-51N) substrate solution in assay buffer was added and the reaction mixture was incubated for 2 hours at RT. The final concentration of Aurora A, ATP and MBP in the reactions were 2.5 nM, 20 μM and 4.7 μM, respectively. Reactions were stopped and the remaining ATP depleted by adding 10 μL of ADP-Glo reagent (Promega, cat #V912B) and incubating for 40 minutes at RT. The simultaneous conversion of the remaining ADP to ATP and measurement of the newly synthesized ATP was achieved by addition of 20 μL Kinase Detection reagent (Promega, cat #V914B), incubation for 30 min at RT, and luminescence detection using the EnVision plate reader (PerkinElmer). Reactions lacking Aurora A were used as 100% inhibition controls. Reactions containing DMSO alone were used as 0% inhibition controls. The IC50 values reported in Table 2 were determined using four parameter non-linear regression curve fit.

[2] = target: T2, human recombinant Aurora B (Homo sapiens, UniProt Q96GD4); test: Aurora B Kinase Biochemical Assay (ADP-Glo); conditions: selectivity ratio; Aurora B 10 nM, 114 μM ATP
T2 construct: purchased ThermoFisher PR9210B
T2 sequence (Q96GD4 whole entry): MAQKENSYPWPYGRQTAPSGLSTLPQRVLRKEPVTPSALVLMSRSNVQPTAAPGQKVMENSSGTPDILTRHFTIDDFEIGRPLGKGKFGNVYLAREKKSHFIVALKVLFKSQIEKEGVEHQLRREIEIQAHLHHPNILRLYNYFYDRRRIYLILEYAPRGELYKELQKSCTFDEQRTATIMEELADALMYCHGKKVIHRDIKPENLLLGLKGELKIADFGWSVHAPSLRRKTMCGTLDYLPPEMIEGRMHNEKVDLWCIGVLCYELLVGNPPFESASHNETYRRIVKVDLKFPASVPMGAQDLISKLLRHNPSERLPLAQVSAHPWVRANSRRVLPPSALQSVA
Description: Activity of human recombinant Aurora B (ThermoFisher, cat #PR9210B) was measured by quantification of adenosine diphosphate (ADP) using the ADP-Glo Kinase Assay Kit (Promega, cat #V9102). Test compounds were solubilized in dimethyl sulfoxide (DMSO) and dispensed into 384-well white polystyrene nonbinding plates (Greiner, cat #781094) using the Echo acoustic dispenser (Labcyte Inc.) in a 11-point 3-fold titration in duplicates. 5 μL of 20 nM Aurora B in assay buffer (50 mM HEPES, pH 7.5, 0.01% Brij-35, 0.01% BSA, 10 mM MgCl2, 1 mM EGTA, 1 mM DTT) was added to the plates. Test compounds and Aurora B were incubated for 15 minutes at room temperature (RT). Then 5 μL of a 228 μM adenosine triphosphate (ATP) (Promega, cat #V915B) and 9.3 μM Myelin Basic Protein (MBP) (SignalChem, cat #M42-51N) substrate solution in assay buffer was added and the reaction mixture was incubated for 2 hours at RT. The final concentration of Aurora b, ATP and MBP in the reactions were 10 nM, 114 μM and 4.7 μM, respectively. Reactions were stopped and the remaining ATP depleted by adding 10 μL of ADP-Glo reagent (Promega, cat #V912B) and incubating for 40 minutes at RT. The simultaneous conversion of the remaining ADP to ATP and measurement of the newly synthesized ATP was achieved by addition of 20 μL Kinase Detection reagent (Promega, cat #V9141B), incubation for 30 min at RT, and luminescence detection using the EnVision plate reader (PerkinElmer). Reactions lacking Aurora B were used as […]. Reactions containing DMSO alone were used as […]. The IC50 values reported in Table 2 were determined using four parameter non-linear regression curve fit.

human recombinant PLK4 = target: T3, human recombinant PLK4 (Homo sapiens, UniProt O00444); test: PLK4 Biochemical Assay (ADP-Glo); conditions: 0.5 nM PLK4, 8.0 μM ATP, 4.7 μM MBP, 6 hours at RT
T3 construct: purchased ThermoFisher PV6396
T3 sequence (O00444 1-970): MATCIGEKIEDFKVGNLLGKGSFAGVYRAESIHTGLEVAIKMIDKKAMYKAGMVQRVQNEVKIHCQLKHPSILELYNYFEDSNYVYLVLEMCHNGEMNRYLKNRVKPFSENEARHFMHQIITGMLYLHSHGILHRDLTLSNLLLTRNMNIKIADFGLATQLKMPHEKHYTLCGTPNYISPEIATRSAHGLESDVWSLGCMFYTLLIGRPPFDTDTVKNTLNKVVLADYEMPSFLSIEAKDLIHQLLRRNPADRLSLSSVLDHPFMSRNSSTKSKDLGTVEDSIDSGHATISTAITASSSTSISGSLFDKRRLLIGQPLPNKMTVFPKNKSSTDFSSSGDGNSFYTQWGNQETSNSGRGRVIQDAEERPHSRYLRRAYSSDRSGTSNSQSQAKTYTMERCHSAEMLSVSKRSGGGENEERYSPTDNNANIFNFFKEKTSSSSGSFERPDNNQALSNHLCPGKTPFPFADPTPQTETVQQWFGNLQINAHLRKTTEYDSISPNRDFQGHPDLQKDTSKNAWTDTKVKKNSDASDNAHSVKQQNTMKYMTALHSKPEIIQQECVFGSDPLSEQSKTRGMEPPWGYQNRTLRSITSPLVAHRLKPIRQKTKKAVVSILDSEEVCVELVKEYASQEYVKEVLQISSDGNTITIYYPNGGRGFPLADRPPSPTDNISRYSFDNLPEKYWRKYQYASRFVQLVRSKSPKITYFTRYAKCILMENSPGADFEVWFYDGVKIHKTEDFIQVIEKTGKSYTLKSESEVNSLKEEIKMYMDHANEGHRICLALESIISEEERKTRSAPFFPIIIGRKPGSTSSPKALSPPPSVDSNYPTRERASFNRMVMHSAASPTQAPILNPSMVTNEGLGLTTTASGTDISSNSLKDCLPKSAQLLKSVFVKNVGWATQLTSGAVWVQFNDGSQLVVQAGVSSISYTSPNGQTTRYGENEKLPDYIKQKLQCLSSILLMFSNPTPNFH
Description: Activity of human recombinant PLK4 (ThermoFisher, cat #PV6396) was measured by quantification of adenosine diphosphate (ADP) using the ADP-Glo Kinase Assay Kit (Promega, cat #V9102). […] 5 μL of 1.0 nM PLK4 protein in assay buffer (50 mM HEPES, pH 7.5, 0.01% Brij-35, 0.01% BSA, 10 mM MgCl2, 1 mM EGTA, 1 mM DTT) was added to the plates. Test compounds and PLK4 were incubated for 15 minutes at room temperature (RT). […] Reactions were stopped and the remaining ATP depleted by adding 10 μL of ADP-Glo reagent (Promega, cat #V912B) and incubating for 40 minutes at RT. The simultaneous conversion of the remaining ADP to ATP and measurement of the newly synthesized ATP was achieved by addition of 20 μL Kinase Detection reagent (Promega, cat #V914B), incubation for 30 min at RT, and luminescence detection using the EnVision plate reader (PerkinElmer). […] The IC50 values reported in Table 2 were determined using four parameter non-linear regression curve fit.

CHP134 = CHP134 CellTiter-Glo (CTG) Assay; assay type: cell-based; conditions: Homo sapiens, CHP-134, 120 h; viable cells by CellTiter-Glo after 5 days
Description: […] cells (DSMZ-German Collection of Microorganisms and Cell Cultures, Braunschweig Germany) were cultured in RPMI 1640 supplemented with 10% fetal bovine serum, penicillin (100 U/ml), 1% L-Glutamine and streptomycin ([…]). Cells were seeded (200 cells/well) in 384-well plates for 16 hours. On day two, nine serial 1:3 compound dilutions were made in DMSO in a 96-well plate. The compounds were then further diluted into growth media using a BRAVO robot (Agilent, Santa Clara, CA). The diluted compounds were then added to quadruplicate wells in the 384-well cell plate and incubated at 37° C. and 5% CO2. After 5 days, relative numbers of viable cells were measured by luminescence using CellTiter-Glo® (Promega) according to the manufacturer's instructions and read on a SPARK Multimode Microplate Reader (Tecan, Mannedorf Switzerland). The IC50 calculations for the values reported in Table 2 were carried out using Prism 6.0 software (GraphPad, San Diego).

Structure (SMILES) | [Aurora A IC50 (nM)]/[PLK4 IC50 (nM)] [1] | [Aurora B IC50 (nM)]/[PLK4 IC50 (nM)] [2] | IC50 (human recombinant PLK4) [nM] | IC50 (CHP134) [nM]
COc1ccc2c(c1)[C@]1(C[C@H]1c1ccc3c(Nc4cc(-c5cn(C)nc5OC)ccc4OC)n[nH]c3c1)C(=O)N2 [Example 36, (1R,2S)-5′-methoxy-2-{3-[2-methoxy-5-(3-methoxy-1-methyl-1H-pyrazol-4-yl)anilino]-1H-indazol-6-yl}spiro[cyclopropane-1,3′-indol]-2′(1′H)-one] | 4350.9615 | 12202.7972 | 2.29 | 
COc1ccc2c(c1)[C@]1(C[C@H]1c1ccc3c(Nc4nc(-c5cncnc5)ncc4OC)n[nH]c3c1)C(=O)N2 [Example 25, (1R,2S)-5′-methoxy-2-{3-[(5-methoxy[2,5′-bipyrimidin]-4-yl)amino]-1H-indazol-6-yl}spiro[cyclopropane-1,3′-indol]-2′(1′H)-one] | 934.8277 | 608.5512 | 2.41 | 
COc1ccc2c(c1)[C@]1(C[C@H]1c1ccc3c(Nc4ccc(C5(N(C)C)COC5)cc4OC)n[nH]c3c1)C(=O)N2 [Example 9, (1R,2S)-2-(3-{4-[3-(dimethylamino)oxetan-3-yl]-2-methoxyanilino}-1H-indazol-6-yl)-5′-methoxyspiro[cyclopropane-1,3′-indol]-2′(1′H)-one] |  |  | 0.862 | 166
